Assay: log P (HPLC/MS data of the preparation examples)
Conditions: HCOOH (formic acid)
`Cn1c(C(=NOCc2nccc(N(C(=O)C3CC3)C(=O)C3CC3)n2)c2ccccc2)cnc1C(=O)C1CC1` [Example 312, N-(cyclopropylcarbonyl)-N-(2-{[({[2-(cyclopropylcarbonyl)-1-methyl-1H-imidazol-5-yl](phenyl)methylene}amino)oxy]methyl}pyrimidin-4-yl)cyclopropanecarboxamide] showed a chromatographic logP of 3.73.

Same assay, conditions: LC-MS, method [b]: pH 2.7 with 0.1% formic acid in water and acetonitrile, linear gradient 10% to 95% acetonitrile
In the case of `Cc1cc(C(F)(F)F)nn1CC(=O)Nc1cccc(CON=C(c2ccccc2)c2nccn2C)n1` [Example 279], the log p is reported as 2.61^[b]. In the case of `Cn1ccnc1C(=NOCc1cccc(NC(=O)COc2ccccc2)n1)c1ccccc1` [Example 280], the log p is reported as 2.58^[b]. For `Cn1ccnc1C(=NOCc1cccc(NC(=O)CCC2CCCC2)n1)c1ccccc1` [Example 281], the log p was 3.19^[b]. With `Cn1ccnc1C(=NOCc1cccc(NC(=O)CCC2CCCCC2)n1)c1ccccc1` [Example 282] the log p was 3.67^[b]. In the case of `Cn1ccnc1C(=NOCc1cccc(NC(=O)CSc2ccccc2)n1)c1ccccc1` [Example 283], the log p is reported as 2.63^[b]. With `Cn1ccnc1C(=NOCc1cccc(NC(=O)CCC2CCCC2)n1)c1cccc(F)c1` [Example 284] the log p was 3.44^[b]. In the case of `Cn1ccnc1C(=NOCc1cccc(NC(=O)CCC2CCCCC2)n1)c1cccc(F)c1` [Example 285], the log p is reported as 3.92^[b]. For `Cn1ccnc1C(=NOCc1cccc(NC(=O)CSc2ccccc2)n1)c1cccc(F)c1` [Example 286], the log p was 2.82^[b]. In the case of `CSCCC(=O)Nc1cccc(CON=C(c2cccc(F)c2)c2nccn2C)n1` [Example 287], the log p is reported as 2.07^[b]. In the case of `CCC(C)CC(=O)Nc1cccc(CON=C(c2cccc(F)c2)c2nccn2C)n1` (centres unmarked) [Example 288], the log p is reported as 2.77^[b]. With `CCCC(C)C(=O)Nc1cccc(CON=C(c2cccc(F)c2)c2nccn2C)n1` (centres unmarked) [Example 289] the log p was 2.77^[b]. With `Cn1ccnc1C(=NOCc1cccc(NC(=O)Cc2cccs2)n1)c1cccc(F)c1` [Example 290] the log p was 2.44^[b]. For `Cn1ccnc1C(=NOCc1cccc(NC(=O)Cc2ccccc2Cl)n1)c1cccc(F)c1` [Example 291], the log p was 2.8^[b]. In the case of `Cc1cc(C(F)(F)F)nn1CC(=O)Nc1cccc(CON=C(c2cccc(F)c2)c2nccn2C)n1` [Example 292], the log p is reported as 2.8^[b]. For `Cn1ccnc1C(=NOCc1cccc(NC(=O)COc2ccccc2)n1)c1cccc(F)c1` [Example 293], the log p was 2.63^[b]. For `Cn1ncnc1C(=NOCc1cccc(NC(=O)Cc2ccc(F)cc2)n1)c1ccccc1` [Example 294], the log p was 3.15^[b]. For `Cn1ncnc1C(=NOCc1cccc(NC(=O)CCc2ccc(Cl)s2)n1)c1ccccc1` [Example 295], the log p was 3.74^[b]. For `Cn1ncnc1C(=NOCc1cccc(NC(=O)CCc2cc(Cl)cc(Cl)c2)n1)c1ccccc1` [Example 296], the log p was 4.29^[b]. For `COc1ccc(CCC(=O)Nc2cccc(CON=C(c3ccccc3)c3ncnn3C)n2)cc1` [Example 297], the log p was 3.25^[b]. With `COc1cccc(CCC(=O)Nc2cccc(CON=C(c3ccccc3)c3ncnn3C)n2)c1` [Example 298] the log p was 3.25^[b]. For `COc1ccccc1CCC(=O)Nc1cccc(CON=C(c2ccccc2)c2ncnn2C)n1` [Example 299], the log p was 3.44^[b]. In the case of `Cn1ncnc1C(=NOCc1cccc(NC(=O)CCc2ccc(Cl)cc2)n1)c1ccccc1` [Example 300], the log p is reported as 3.72^[b]. In the case of `Cn1ncnc1C(=NOCc1cccc(NC(=O)CCc2ccccc2Cl)n1)c1ccccc1` [Example 301], the log p is reported as 3.72^[b]. For `Cn1ncnc1C(=NOCc1cccc(NC(=O)CCc2ccc(C(F)(F)F)cc2)n1)c1ccccc1` [Example 302], the log p was 3.9^[b]. For `Cn1ncnc1C(=NOCc1cccc(NC(=O)CCc2ccccc2C(F)(F)F)n1)c1ccccc1` [Example 303], the log p was 3.87^[b]. With `Cn1ncnc1C(=NOCc1cccc(NC(=O)C2CC2c2ccccc2)n1)c1ccccc1` (centres unmarked) [Example 304] the log p was 3.61^[b]. With `C=CCCOC(=O)Nc1cccc(CON=C(c2ccccc2)c2ncnn2C)n1` [Example 305] the log p was 3.21^[b]. In the case of `CC(C)CCC(=O)Nc1cccc(CON=C(c2ccccc2)c2ncnn2C)n1` [Example 306], the log p is reported as 3.37^[b]. For `CCC(C)CC(=O)Nc1cccc(CON=C(c2ccccc2)c2ncnn2C)n1` (centres unmarked) [Example 307], the log p was 3.31^[b]. For `Cn1ncnc1C(=NOCc1cccc(NC(=O)CCCCCl)n1)c1ccccc1` [Example 308], the log p was 2.98^[b]. For `C#CCCCC(=O)Nc1cccc(CON=C(c2ccccc2)c2ncnn2C)n1` [Example 309], the log p was 2.7^[b]. For `C=CCCC(=O)Nc1cccc(CON=C(c2ccccc2)c2ncnn2C)n1` [Example 310], the log p was 2.77^[b]. With `Cn1ncnc1C(=NOCc1cccc(NC(=O)Cc2cccs2)n1)c1ccccc1` [Example 311] the log p was 2.98^[b]. With `Cn1ncnc1C(=NOCc1cccc(NC(=O)Cc2cccc(Cl)c2)n1)c1ccccc1` [Example 313] the log p was 3.5^[b]. In the case of `C=CCC(=O)Nc1cccc(CON=C(c2ccccc2)c2ncnn2C)n1` [Example 314], the log p is reported as 2.51^[b]. For `CC(C)COC(=O)Nc1cccc(CON=C(c2ccccc2)c2ncnn2C)n1` [Example 316], the log p was 3.52^[b]. In the case of `CC(C)CCOC(=O)Nc1cccc(CON=C(c2ccccc2)c2ncnn2C)n1` [Example 317], the log p is reported as 3.9^[b].

Same assay, conditions: method [b]: LC-MS at pH 2.7, 0.1% formic acid in water / acetonitrile, linear gradient 10% to 95% acetonitrile
With `Cn1ncnc1C(=NOCc1cccc(NC(=O)Cc2ccccc2Cl)n1)c1ccccc1` [Example 243] the log p was 3.31^[b]. With `Cn1ncnc1C(=NOCc1cccc(NC(=O)Cc2cccc(C(F)(F)F)c2)n1)c1ccccc1` [Example 244] the log p was 3.64^[b]. In the case of `Cn1ncnc1C(=NOCc1cccc(NC(=O)Cc2ccccc2C(F)(F)F)n1)c1ccccc1` [Example 245], the log p is reported as 3.51^[b]. In the case of `COc1ccc(CC(=O)Nc2cccc(CON=C(c3ccccc3)c3ncnn3C)n2)cc1` [Example 246], the log p is reported as 3.02^[b]. In the case of `COc1cccc(CC(=O)Nc2cccc(CON=C(c3ccccc3)c3ncnn3C)n2)c1` [Example 247], the log p is reported as 3.06^[b]. For `Cn1ncnc1C(=NOCc1cccc(NC(=O)C2CCCCC2)n1)c1ccccc1` [Example 248], the log p was 3.39^[b]. In the case of `Cn1ncnc1C(=NOCc1cccc(NC(=O)CCCc2ccccc2)n1)c1ccccc1` [Example 249], the log p is reported as 3.6^[b]. With `Cn1ncnc1C(=NOCc1cccc(NC(=O)CSc2ccccc2)n1)c1ccccc1` [Example 250] the log p was 3.33^[b]. With `Cn1ncnc1C(=NOCc1cccc(NC(=O)C2CCCCO2)n1)c1ccccc1` (centres unmarked) [Example 251] the log p was 3.15^[b]. For `CCc1ccc(C(=O)Nc2cccc(CON=C(c3ccccc3)c3ncnn3C)n2)cc1` [Example 252], the log p was 3.73^[b]. In the case of `CCCCCOC(=O)Nc1cccc(CON=C(c2ccccc2)c2cncn2C)n1` [Example 253], the log p is reported as 2.39^[b]. In the case of `CCCCCCCCCC(=O)Nc1cccc(CON=C(c2ccccc2)c2cncn2C)n1` [Example 254], the log p is reported as 3.09^[b]. In the case of `Cn1cncc1C(=NOCc1cccc(NC(=O)COc2ccccc2)n1)c1ccccc1` [Example 255], the log p is reported as 2.04^[b]. In the case of `CCCC(=O)Nc1cccc(CON=C(c2ccccc2)c2cncn2C)n1` [Example 256], the log p is reported as 1.6^[b]. For `CCCCC(=O)Nc1cccc(CON=C(c2ccccc2)c2cncn2C)n1` [Example 258], the log p was 1.82^[b]. In the case of `CCC(C(=O)Nc1cccc(CON=C(c2ccccc2)c2cncn2C)n1)c1ccccc1` (centres unmarked) [Example 259], the log p is reported as 2.3^[b]. With `Cn1c(C(=NOCc2nccc(N(C(=O)C3CC3)C(=O)C3CC3)n2)c2ccccc2)cnc1C(=O)C1CC1` [Example 260] the log p was 3.73^[b]. With `CCCc1ccc(C(=O)Nc2cccc(CON=C(c3ccccc3)c3ncnn3C)n2)cc1` [Example 261] the log p was 4.24^[b]. With `CCC(C)CC(=O)Nc1cccc(CON=C(c2ccccc2)c2nccn2C)n1` (centres unmarked) [Example 262] the log p was 2.54^[b]. For `CCCC(C)C(=O)Nc1cccc(CON=C(c2ccccc2)c2nccn2C)n1` (centres unmarked) [Example 263], the log p was 2.54^[b]. In the case of `Cn1ccnc1C(=NOCc1cccc(NC(=O)Cc2cccs2)n1)c1ccccc1` [Example 264], the log p is reported as 2.23^[b]. In the case of `Cn1ccnc1C(=NOCc1cccc(NC(=O)Cc2ccccc2Cl)n1)c1ccccc1` [Example 265], the log p is reported as 2.61^[b]. In the case of `COc1ccc(CC(=O)Nc2cccc(CON=C(c3ccccc3)c3nccn3C)n2)cc1` [Example 266], the log p is reported as 2.33^[b]. With `COc1cccc(CC(=O)Nc2cccc(CON=C(c3ccccc3)c3nccn3C)n2)c1` [Example 267] the log p was 2.37^[b]. For `COc1ccccc1CC(=O)Nc1cccc(CON=C(c2ccccc2)c2nccn2C)n1` [Example 268], the log p was 2.47^[b]. With `Cn1ccnc1C(=NOCc1cccc(NC(=O)Cc2ccccc2F)n1)c1ccccc1` [Example 269] the log p was 2.4^[b]. For `COCCC(=O)Nc1cccc(CON=C(c2ccccc2)c2nccn2C)n1` [Example 270], the log p was 4.53^[b]. For `CSCCC(=O)Nc1cccc(CON=C(c2ccccc2)c2nccn2C)n1` [Example 271], the log p was 1.9^[b]. In the case of `Cn1ccnc1C(=NOCc1cccc(NC(=O)OCCF)n1)c1ccccc1` [Example 272], the log p is reported as 1.81^[b]. For `COc1ccc(CC(=O)Nc2cccc(CON=C(c3cccc(F)c3)c3nccn3C)n2)cc1` [Example 273], the log p was 2.54^[b]. With `COc1cccc(CC(=O)Nc2cccc(CON=C(c3cccc(F)c3)c3nccn3C)n2)c1` [Example 274] the log p was 2.58^[b]. For `COc1ccccc1CC(=O)Nc1cccc(CON=C(c2cccc(F)c2)c2nccn2C)n1` [Example 275], the log p was 2.66^[b]. In the case of `Cn1ccnc1C(=NOCc1cccc(NC(=O)Cc2ccccc2F)n1)c1cccc(F)c1` [Example 276], the log p is reported as 2.59^[b]. With `COCCC(=O)Nc1cccc(CON=C(c2cccc(F)c2)c2nccn2C)n1` [Example 277] the log p was 1.69^[b]. With `CC(C(=O)Nc1cccc(CON=C(c2cccc(F)c2)c2nccn2C)n1)c1ccccc1` (centres unmarked) [Example 278] the log p was 2.92^[b].

Same assay, conditions: reversed phase HPLC column, pH 2.7
In the case of `CCCCCC(=O)Nc1cccc(CON=C(c2ccccc2)c2ocnc2C)n1` [Example 320, N-{6-[({[(4-methyl-1,3-oxazol-5-yl)(phenyl)methylene]amino}oxy)methyl]pyridin-2-yl}hexanamide], the chromatographic logP is reported as 3.94.
